Format in all cases: physicochemical
Series [1] in a line: Durability of the Razo cis-trans interconversion. To be noted: blue then UV to photostationary states, repeated 15 times. How it is done:
(§1) Razo as a stock solution of 70 mM in DMSO was diluted to 25 μM Razo in buffer (20 mM Tris-HCl, pH 7.4, 40 mM KCl). Absorbance spectra were acquired on a PerkinElmer UV-Vis spectrometer and sample illumination light was from a Lumencor Aura light engine, with a Blue light output centered on 475 nm with 28 nm bandpass filter and UV light output centered on 360 nm with a 28 nm bandpass filter. cis-Razo and trans-Razo Absorbance spectra shapes agreed with those from the paper where Razo was originally developed (Wang, et al. Angew. Chem., Int. Ed. 2010, 49, 5305). We aimed to characterize several features of the isomerization that are relevant to inform printing parameters for patterning of the substrate: light kinetics, dark kinetics, and durability.
Blue light was applied until the trans-dominated photostationary state was reached (blue curve in FIG. 5). Then UV light was applied until the cis-dominated photostationary state was reached (purple curve in FIG. 5).

Series [2] is described as follows: Razo cis-trans thermal conversion in the dark. To be noted: after long UV exposure, kept in the dark for 15 minutes. As for the experimental part: as §1
After a long UV exposure to drive Razo to the cis dominated photostationary state, the sample was kept in the dark for 15 and 90 minutes.

Series [3] in a line: Razo cis-trans conversion using light (UV-Vis absorbance spectra). How it is done:
as §1
After a long Blue (referred to as ‘visible’ in legend) light exposure to drive Razo to a trans dominated photostationary state, the amount of UV light necessary to drive Razo to the cis dominated photostationary state was determined to be roughly 10 seconds at 25% power (approximately 15 mW/cm^2).
After a long UV light exposure to drive Razo to a cis dominated photostationary state, the amount of Blue light necessary to drive Razo to the trans dominated photostationary state was determined to be roughly 10 seconds at 50% power (approximately 50 mW/cm^2).

Structures are written as SMILES.

Regarding `C[N+]1(CCOc2ccc(/N=N/c3ccc(OCC[N+]4(C)CCCCC4)cc3)cc2)CCCCC1` [Razo], the “isomerization efficiency over repeated blue/UV cycles” value in series [1] is given as “isomerization efficiency is maintained over 15 cycles”. Further, the “relaxation of cis to trans in the dark” value in series [2] was “almost no relaxation of cis to trans”. Further, the “amount of UV light necessary to drive Razo to the cis dominated photostationary state” value in series [3] (25 μM Razo in buffer (20 mM Tris-HCl, pH 7.4, 40 mM KCl), after long Blue exposure, UV 360 nm at 25% power (approximately 15 mW/cm^2)) is given as “roughly 10 seconds”. Further, in series [3] (25 μM Razo in buffer, after long UV exposure, Blue 475 nm at 50% power (approximately 50 mW/cm^2)), the “amount of Blue light necessary to drive Razo to the trans dominated photostationary state” value is listed as “roughly 10 seconds”.

The record behind these values is US20250041479A1, “PHOTO-ENZYMATIC PRINTING” (The Board of Trustees of the Leland Stanford Junior …, priority 2021, published 2025).
